According to patent publication US11130761B2, “Substituted pyrrolo[2,1-f][1,2,4]triazines as FGFR inhibitors” (CSPC ZHONGQI PHARMACEUTICAL TECHNOLOGY (SHIJIAZHUANG) CO., …, priority 2016, dated 2021):

Key:
human FGFR1 = target: T1, human FGFR1 (Homo sapiens, UniProt P11362); experiment: 33P isotope-labeled kinase activity assay (Reaction Biology Corp), FGFR1; type: biochemical; conditions: 33P-ATP kinase assay, ATP 5 μM, kinase 1.75 nM, substrate pEY + Mn, 120 minutes at room temperature
T1 construct: purchased Invitrogen PV3146
T1 sequence (P11362 22-822): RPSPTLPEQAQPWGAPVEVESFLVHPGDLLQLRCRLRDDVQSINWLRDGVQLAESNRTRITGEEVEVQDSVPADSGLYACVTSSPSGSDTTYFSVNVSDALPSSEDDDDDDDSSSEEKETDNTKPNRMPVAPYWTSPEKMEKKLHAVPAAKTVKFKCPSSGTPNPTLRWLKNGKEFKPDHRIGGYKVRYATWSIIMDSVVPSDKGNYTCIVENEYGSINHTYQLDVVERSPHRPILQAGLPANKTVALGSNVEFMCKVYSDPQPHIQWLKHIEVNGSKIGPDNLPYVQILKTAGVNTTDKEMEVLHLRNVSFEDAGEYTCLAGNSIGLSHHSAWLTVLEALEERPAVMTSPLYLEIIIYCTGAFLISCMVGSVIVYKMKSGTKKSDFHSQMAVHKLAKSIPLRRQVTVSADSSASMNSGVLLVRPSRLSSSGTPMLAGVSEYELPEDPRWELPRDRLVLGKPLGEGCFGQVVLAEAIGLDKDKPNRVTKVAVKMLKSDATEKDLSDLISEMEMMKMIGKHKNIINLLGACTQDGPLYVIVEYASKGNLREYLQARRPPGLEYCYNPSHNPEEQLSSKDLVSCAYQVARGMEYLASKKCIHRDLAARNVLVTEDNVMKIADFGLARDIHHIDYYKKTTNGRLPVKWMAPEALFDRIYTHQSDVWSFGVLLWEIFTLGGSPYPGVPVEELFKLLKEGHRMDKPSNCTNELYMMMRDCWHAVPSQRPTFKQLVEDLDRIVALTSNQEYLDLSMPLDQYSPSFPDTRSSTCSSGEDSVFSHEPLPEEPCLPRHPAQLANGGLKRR
Method: (§1) The IC50 value was determined by ^33P isotope-labeled kinase activity assay (Reaction Biology Corp) to evaluate the inhibitory activity of the test compounds on human FGFR1 and FGFR4.
(§2) Buffer: 20 mM Hepes (pH 7.5), 10 mM MgCl2, 1 mM EGTA, 0.02% Brij35, 0.02 mg/mL BSA, 0.1 mM Na3VO4, 2 mM DTT, 1% DMSO.
(§3) Test procedure: the test compound was dissolved in DMSO at room temperature to prepare a 10 mM solution for use. The substrate was dissolved in a freshly prepared buffer, followed by addition of the kinase to be tested and the resulting mixture was thoroughly mixed. The solution of the test compound in DMSO was added to the above reaction solution by acoustic technique (Echo 550). The concentration of the compound in the reaction solution was 10 μM, 3.33 μM, 1.11 μM, 0.370 μM, 0.123 μM, 41.2 nM, 13.7 nM, 4.57 nM, 1.52 nM, 0.508 nM, or […], 39.1 nM, 9.8 nM, 2.4 nM, 0.61 nM, 0.15 nM, 0.038 nM. After incubation for 15 minutes, ^33P-ATP (activity 0.01 μCi/μL, corresponding concentration was listed in table 1) was added to initiate the reaction. The reaction was allowed to proceed at room temperature for 120 minutes, then the reaction solution was spotted on P81 ion exchange filter paper (Whatman #3698-915). After the filter paper was washed with 0.75% phosphoric acid solution, the radioactivity of the remained phosphorylated substrate on the filter paper was determined. The kinase activity data was expressed as a ratio of the kinase activity of the test compound to the kinase activity of the control group (DMSO), and the IC50 value was obtained by curve fitting using Prism4 software (GraphPad).

human FGFR4 = target: T2, human FGFR4 (Homo sapiens, UniProt P22455); experiment: 33P isotope-labeled kinase activity assay (Reaction Biology Corp), FGFR4; type: biochemical; conditions: for IC50: 33P-ATP kinase assay, ATP 100 μM, kinase 2.5 nM, substrate pEY + Mn, 120 minutes at room temperature; for Inhibition activity difference (IC50 ratio) FGFR4/FGFR1: ratio of FGFR4 IC50 to FGFR1 IC50
T2 construct: purchased Invitrogen P3054
T2 sequence (P22455 22-802): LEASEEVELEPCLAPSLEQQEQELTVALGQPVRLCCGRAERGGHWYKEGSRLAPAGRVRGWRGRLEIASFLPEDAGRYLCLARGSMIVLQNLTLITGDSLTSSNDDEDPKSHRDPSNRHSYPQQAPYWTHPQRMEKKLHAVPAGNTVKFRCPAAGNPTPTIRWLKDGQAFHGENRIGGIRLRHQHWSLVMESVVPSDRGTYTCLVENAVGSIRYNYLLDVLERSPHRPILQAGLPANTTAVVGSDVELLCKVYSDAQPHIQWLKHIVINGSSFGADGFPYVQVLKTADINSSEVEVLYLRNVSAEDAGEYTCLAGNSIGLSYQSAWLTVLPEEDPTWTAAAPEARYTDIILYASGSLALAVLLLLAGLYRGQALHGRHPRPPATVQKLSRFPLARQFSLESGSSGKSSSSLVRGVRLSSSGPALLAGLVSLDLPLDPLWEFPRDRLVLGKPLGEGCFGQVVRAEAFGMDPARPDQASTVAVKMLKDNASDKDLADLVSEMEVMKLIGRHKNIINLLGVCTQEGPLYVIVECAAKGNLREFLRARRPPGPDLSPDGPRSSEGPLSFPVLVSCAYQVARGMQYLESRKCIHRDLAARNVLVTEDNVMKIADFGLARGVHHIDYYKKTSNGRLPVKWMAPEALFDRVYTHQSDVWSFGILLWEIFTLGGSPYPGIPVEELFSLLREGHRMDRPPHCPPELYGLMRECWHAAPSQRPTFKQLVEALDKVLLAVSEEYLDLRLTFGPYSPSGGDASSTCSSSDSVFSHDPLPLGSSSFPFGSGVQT
Method: as §1, §2, §3

SMILES | IC50 (human FGFR1) [nM] | IC50 (human FGFR4) [nM] | Inhibition activity difference (IC50 ratio) FGFR4/FGFR1 (human FGFR4)
C=CC(=O)N1CCC(c2cc(C#Cc3c(Cl)c(OC)cc(OC)c3Cl)c3c(N)ncnn23)C1 (single isomer, unassigned) [Embodiment 6] | 0.3 | 4.6 | 15
C=CC(=O)N1CCC(c2cc(C#Cc3cc(OC)cc(OC)c3)c3c(N)ncnn23)C1 (single isomer, unassigned) [Embodiment 1] | 18.3 | 125 | 7

Second part, the molecule after the results:

IC50 (human FGFR1) [nM] | IC50 (human FGFR4) [nM] | Inhibition activity difference (IC50 ratio) FGFR4/FGFR1 (human FGFR4) | SMILES
0.7 | 6.6 | 9 | C=CC(=O)N1CCC(c2cc(C#Cc3c(F)c(OC)cc(OC)c3F)c3c(N)ncnn23)C1 (single isomer, unassigned) [Embodiment 3]
21.8 | 450 | 21 | C=CC(=O)N1CCC(c2cc(C#Cc3c(Cl)c(OC)cc(OC)c3Cl)c3c(N)ncnn23)C1 (single isomer, unassigned) [Embodiment 5]
0.07 | 0.08 | 1 | C=CC(=O)N1CCC(c2cc(C#Cc3c(F)c(OC)cc(OC)c3F)c3c(N)ncnn23)C1 (single isomer, unassigned) [Embodiment 4]
